Laboratory results from paper PMC10856618, “Research on the Interaction Mechanism and Structural Changes in Human Serum Albumin with Hispidin Using Spectroscopy and Molecular Docking” (Molecules, 2024).

Biological target: T1, human serum albumin (HSA) (Homo sapiens, UniProt P02768)
T1 construct: gene ALB; commercial HSA (Solarbio), mature plasma protein, 585 residues, 66,500 Da
Test: intrinsic fluorescence quenching titration (ex […] nm)
Type: binding
Conditions: 298 K, pH 7.4 Tris-HCl, 0.1 mol/L NaCl, 5 µmol/L HSA; n = 1.04; double-log; mainly site I (subdomain IIA)

T1 sequence (P02768 25-609): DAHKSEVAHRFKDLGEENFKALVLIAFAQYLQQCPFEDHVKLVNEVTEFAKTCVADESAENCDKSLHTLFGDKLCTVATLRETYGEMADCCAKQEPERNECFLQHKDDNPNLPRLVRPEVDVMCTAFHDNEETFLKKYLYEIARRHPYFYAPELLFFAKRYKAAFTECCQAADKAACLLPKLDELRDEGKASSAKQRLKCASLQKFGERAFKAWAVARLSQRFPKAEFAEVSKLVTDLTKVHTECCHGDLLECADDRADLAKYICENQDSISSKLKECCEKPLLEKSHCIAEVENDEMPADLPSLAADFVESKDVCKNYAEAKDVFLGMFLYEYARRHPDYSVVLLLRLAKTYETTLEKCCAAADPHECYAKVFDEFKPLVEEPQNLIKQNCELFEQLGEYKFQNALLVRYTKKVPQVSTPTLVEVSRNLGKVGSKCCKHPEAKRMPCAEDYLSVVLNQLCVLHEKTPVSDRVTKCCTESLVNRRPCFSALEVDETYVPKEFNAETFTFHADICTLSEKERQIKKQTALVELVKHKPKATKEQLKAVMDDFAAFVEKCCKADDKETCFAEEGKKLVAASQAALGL

O=c1cc(O)cc(/C=C/c2ccc(O)c(O)c2)o1 [hispidin]
Ka (10^5 L/mol): 1.03 × 10^5 L/mol
